How the values were obtained:
[1] = test system: osteoporosis caused by estrogen deficiency; test: Ovariectomized rat osteoporosis model: bone histomorphometry and apparent bone density; type: in vivo, female Wistar rats
From the text: The purpose of this example is to show the potency of bakuchiol in treating osteoporosis, wherein ovary of a female rat is removed to stimulate osteoporosis caused by estrogen deficiency.
The female Wistar rats of 16 weeks old (unless specified in the other experiment description) were obtained from the stock reared by the Animal breeding center, National Scientific Council in Taipei. These rats were grouped by weights matched in order to distribute the physiological response variation from rats evenly into each group. These rats were grouping as follows: • Baseline group fed with no drug added food (n=8) • Sham operation group fed with no drug added food (Sham) (n=10) • Ovariectomy operation group fed with no drug added food (OVX) (n=8) • Ovariectomy operation group fed with Drug A (5 mg/kg) added food (OVX+A) (n=9) • Ovariectomy operation group fed with Drug B (15 mg/kg) added food (OVX+B) (n=9)
Ovariectomy (removal of ovaries) operation: Ovariectomy was induced using a protocol similar to that described by Wronski et al (Wronski et al, Endocrinology, 123 (2), 681-686 ([…]))
During the experiments, the rats were housed in hanging grid cages in groups of two at 21°C with a 12 hours dark cycle. Food (Rat-mouse diet III, adequate in 1 % of calcium content and 1.2 % of phosphate content, Purina, USA) was administered by paired feeding between the experimental and control groups. Pair-feeding was carried out by calculating the average amount of food intake in the Sham group. So give the same amount of food to the OVX , OVX+A (5 mg/kg), OVX+B (15 mg/kg) group animals the following day. These animals were fed with a period of two months except for the baseline group which were killed on the very day of doing ovariectomy or sham operation. Rats of OVX+A and OVX+B groups were fed with the usual food chuck but added certain amount of compound A and B in it respectively. Water was given ad libitum to all rats.
The test drug was weighted according to dose of 5 mg/kg and 15 mg/kg, and added into the ususal food chuck powder and mixed with 10% starch paste. After fully mixed, these chuck powder were made into mass manually and dried by air flow oven. The food with added drug to rats was performed by single blind method.
These labeling and bone histomorphometry assessment were done based on standard procedure in bone research (Lin et al, Calcif. Tissue Int., 67, 373-377 (2000)). […] Seven µm thick unstained sections were prepared for fluorescent microscopy and assessed with program Osteomeasure (3.0 version, Atlanta, USA). […]
The whole tibia and femur were stripped off attached muscles and ligaments after sacrifice. […] The weight of bone measured in the air was marked as W-air. […] The apparent bone density was calculated as [W-air/(W-air minus W-water)] […]

T47D = test: Cytotoxicity assay (CCK-8), T47D; type: cell-based, human; details: T47D (estrogen receptor positive), 48 hours incubation
From the text: (§1) Materials: DMEM (medium), RPMI (medium), L-glutamine, penicillin, streptomycin and FBS (fetal bovine serum) were obtained from Gibco (NY, USA). Culture plasticware was purchased from Coming (MA, USA). […] All other chemicals used were of reagent grade and were purchased from Sigma or E. Merck (Germany).
(§2) Cell lines and cell cultures: The human breast cancer cell lines T47D and MDA-MB231 were obtained from American Type Culture Collection (ATCC). Of both cancer cells, T47D is estrogen receptor positive, and MDA-MB231 is estrogen receptor negative. Cells were cultured at 37°C in RPMI medium containing 10% charcoal-dextran stripped fetal bovine serum for T47D cells and in DMEM medium containing 10% charcoal-dextran stripped fetal bovine serum for MDA-MB231 cells with 5% CO2. The cell proliferation was determined by counting the viable cells with trypan blue exclusion.
(§3) Cytotoxicity assay: Dispense 198 µl of cell suspension (20,000 cells for T47D per well and 10,000 cell for MDA-MB231 per well) in a 96-well plate and pre-incubate the plate for 24 hours in an incubator at 37°C with humidified 5% CO2. […] After plate was incubated for 48 hours in the incubator, media were aspirated of and new media (100 µl) were added and incubated for more 1 hour. […] Measure the absorbance at 450 nm using a ELISA reader. […]

MDA-MB231 = test: Cytotoxicity assay (CCK-8), MDA-MB231; type: cell-based, human; details: MDA-MB231 (estrogen receptor negative), 48 hours incubation
From the text: as §1, §2, §3

C=C[C@@](C)(/C=C/c1ccc(O)cc1)CCC=C(C)C [Bakuchiol, bakuchiol]
bone volume of proximal tibia ([1]; OVX+A (5 mg/kg) and OVX+B (15 mg/kg) in food, two months, vs OVX group, p < 0.001, Figure 1): increase | erosion surface (ES/BS,%) of proximal tibia ([1]; OVX+A (5 mg/kg) and OVX+B (15 mg/kg) in food, two months, vs OVX group, p < 0.001, Figure 3): inhibition of bone erosion | bone apparent density of tibia ([1]; OVX+A (5 mg/kg) and OVX+B (15 mg/kg) in food, two months, vs OVX group, p < 0.05, Figure 2): increase | therapeutic effect on osteoporosis ([1]; ovariectomized female rat, low dose (5 mg/kg)): possess a therapeutic effect on osteoporosis by inhibiting the bone resorption | 50% inhibition of cell growth concentrations of test compounds (IC50) (T47D): 5.00 μg/cc | 50% inhibition of cell growth concentrations of test compounds (IC50) (MDA-MB231): 0.62 μg/cc

— EP1714646A1, “Pharmaceutical composition containing bakuchiol for treating osteoporosis in women” (Sinphar Pharmaceutical Co., Ltd., priority 2005, dated 2006)
